These are literature values, as cited in article PMC10713630, “Elucidation of the structural basis for ligand binding and translocation in conserved insect odorant receptor co-receptors” (Nature Communications, 2023).

Each structure is given as a SMILES string.

One series concerns MhraOR5. More on the design: method as in PMID 34349260. The settings on record: cited from earlier work.
The subject of the next series is MhraOR5 M209V. More on the design: method as in Del Marmol et al. 3. The settings on record: ref Del Marmol et al. 3; cited from earlier work.
The test system of a further series is AgamOrco/AgamOR65. The settings on record: cited from earlier work.
In a further series the test system is MhraOR1 G169A. Also noted: method as in Del Marmol et al. 3. The following applies: ref Del Marmol et al. 3; cited from earlier work.

With `CCN(CC)C(=O)c1cccc(C)c1` [DEET], the “Agonist of MhraOR5” value in the series with MhraOR5 was “agonists”. The “Effect on DEET-induced channel response” value with MhraOR5 M209V is listed as “I”.

For `CC(C)c1ccc(NC(=O)CSc2nnc(-c3ccncc3)n2C2CC2)cc1` [VUAA4], the EC50 with AgamOrco/AgamOR65 (AgamOrco/AgamOR65, ref Tailor et al. 1) is 2100 nM. The “Potency relative to VUAA1” value in the series with AgamOrco/AgamOR65 (ranked by EC50) was “greater potency”.

Regarding `C=CCc1ccc(O)c(OC)c1` [Eugenol, eugenol], in the series with MhraOR1 G169A, the “Effect on Eugenol-induced channel response” value is “I”. Besides, the “Agonist of MhraOR5” value with MhraOR5 is “agonists”.
